Data set [1] deals with Mus musculus. The data set is described as follows: Concentration required to protect 50 % of mice against hind limb extensor component in MES test when administered perorally. It counts as functional. As to conditions: Hindlimb, po.
Data set [2] in a line: (§1) Compound was evaluated for the anticonvulsant activity in rats. It counts as organism-based. As to conditions: rat, in vivo.
The species entered for data set [3] is Rattus norvegicus. Described as §1. The format is organism-based. Particulars: in vivo.
Data set [4] relates to Rattus norvegicus. The data set can be described thus: Compound was evaluated for the anticonvulsant activity by testing its ability to protect against maximal electroshock- induced seizures in rats; Intraperitoneal administration (ip). It counts as functional. (In general: The maximal electroshock test induces tonic seizures with an electrical stimulus.)
Data set [5] relates to Mus musculus. The data set is described as follows: Concentration required to protect 50 % of mice against hind limb extensor component in MES test when administered intraperitoneally. The format is functional. Particulars: Hindlimb, ip.
The test system of data set [6] is Rattus norvegicus. The data set is described as follows: Compound was evaluated for the anticonvulsant activity by testing its ability to protect against maximal electroshock- induced seizures in rats; Intravenous administration (iv). The format is functional.
For data set [7], the system named is Mus musculus. The data set is described as follows: Concentration required to protect 50 % of mice against hind limb extensor component in MES test when administered intravenously. Particulars: Hindlimb, iv. The format is functional.
For data set [8], the system named is Rattus norvegicus. The data set can be described thus: Compound was evaluated for the anticonvulsant activity by testing its ability to protect against maximal electroshock- induced seizures in rats after peroral administration (po). The format is functional.
Data set [9] relates to Rattus norvegicus. The data set is described as follows: Compound was evaluated for the anticonvulsant activity by testing its ability to protect against maximal electroshock- induced seizures in rats; Peroral administration (po). The format is functional.

As usually defined, the ED50 is the midpoint of the dose-response relation. The term LD50 denotes the dose expected to kill half of the subjects tested. A low value points to a more toxic substance. As for `CNc1ncnc2c1ncn2Cc1ccccc1F` [BW-A78U], the ED50 came to 14 mg/kg with Mus musculus [1]; 1.7 mg/kg in the data set on Rattus norvegicus [4]; 5 mg/kg in the data set with Mus musculus [5]; 0.2 mg/kg with Rattus norvegicus [6]; 4 mg/kg in the data set on Mus musculus [7]; 2.5 mg/kg in the data set with Rattus norvegicus [8]. The values for the 50% lethal dose (LD50) (in data set [2]; in the data set listed under Rattus norvegicus [3]) were greater than 1000 mg/kg and greater than 500 mg/kg, respectively.
For `O=C1NC(=O)C(c2ccccc2)(c2ccccc2)N1` [PHENYTOIN], the median effective dose (ED50) stood at 22 mg/kg in the data set on Mus musculus [1]; 10 mg/kg in the data set with Rattus norvegicus [4]; 9 mg/kg with Mus musculus [5]; 4 mg/kg in the data set on Rattus norvegicus [6]; 1.8 mg/kg in the data set on Mus musculus [7]; 20 mg/kg with Rattus norvegicus [9].

(Values after ChEMBL document CHEMBL1123297, “9-(2-Fluorobenzyl)-6-(methylamino)-9H-purine hydrochloride. Synthesis and anticonvulsant activity” (J Med Chem, 1986).)
